How the values were obtained:
[1] = tested on: IM-95 (Gastric Carcinoma); assay: Bliss excess, mean over the matrix (fraction); higher = more synergy;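 further: after 72 h of two-drug dosing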
Summary of the method: (§1)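 Cell lines in DMEM/F12 or RPMI with 10% FBS were plated in 1536-well plates, held 24 hours at 37°C, 5% CO2, then given two-drug dose matrices for 72 hours (DMSO typically 0.2%). Viability was read by CellTiter-Glo 2.0 luminescence and scaled as inhibition from 0 (vehicle wells) to 1 (blank wells). Combination Emax is the second-highest inhibition in the matrix; Bliss excess is observed combination effect minus expected EA + EB − EA·EB, EA and EB being single-agent effects.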

M059J (Glioblastoma) = assay: combination Emax (second highest fraction inhibited in the dose matrix, 72 h); higher = more inhibition; extreme values may be limits of the assay
Summary of the method: as §1

[2] = tested on: NCI-H3122 (Lung Adenocarcinoma); assay: as above
Summary of the method: as §1

[3] = tested on: HCC1187 (Breast Carcinoma); assay: as above
Summary of the method: as §1

[4] = tested on: DAN-G (Pancreatic Carcinoma); assay: as above
Summary of the method: as §1

[5] = tested on: SNU-398 (Hepatocellular Carcinoma); assay: as above
Summary of the method: as §1

[6] = tested on: VMRC-RCZ (Kidney Carcinoma); assay: as above
Summary of the method: as §1

[7] = tested on: ESO51 (Esophageal Adenocarcinoma); assay: as above
Summary of the method: as §1

[8] = tested on: SK-GT-2 (Gastric Carcinoma); assay: as above
Summary of the method: as §1

RD (Rhabdomyosarcoma) = assay: as above
Summary of the method: as §1

[9] = tested on: T-T (Esophageal Squamous Cell Carcinoma); assay: as above
Summary of the method: as §1

[10] = tested on: SK-GT-4 (Esophageal Adenocarcinoma); assay: as above
Summary of the method: as §1

[11] = tested on: CW-2 (Colorectal Carcinoma); assay: as above
Summary of the method: as §1

[12] = tested on: NCI-H661 (Non-Small Cell Lung Carcinoma); assay: as above
Summary of the method: as §1

[13] = tested on: SU-DHL-5 (B-Cell Non-Hodgkin's Lymphoma); assay: as above
Summary of the method: as §1

[14] = tested on: DMS-114 (Small Cell Lung Carcinoma); assay: as above
Summary of the method: as §1

[15] = tested on: KYSE-270 (Esophageal Squamous Cell Carcinoma); assay: as above
Summary of the method: as §1

[16] = tested on: COR-L279 (Small Cell Lung Carcinoma); assay: as above
Summary of the method: as §1

[17] = tested on: MN-60 (B-Lymphoblastic Leukemia); assay: as above
Summary of the method: as §1

NCI-H2731 (Mesothelioma) = assay: as above
Summary of the method: as §1

| SMILES | Bliss excess [1] | combination Emax (M059J (Glioblastoma)) | combination Emax [2] | combination Emax [3] | combination Emax [4] | combination Emax [5] | combination Emax [6] | combination Emax [7] | combination Emax [8] | combination Emax (RD (Rhabdomyosarcoma)) | combination Emax [9] | combination Emax [10] | combination Emax [11] | combination Emax [12] | combination Emax [13] | combination Emax [14] | combination Emax [15] | combination Emax [16] | combination Emax [17] | combination Emax (NCI-H2731 (Mesothelioma)) |
| --- | --- | --- | --- | --- | --- | --- | --- | --- | --- | --- | --- | --- | --- | --- | --- | --- | --- | --- | --- | --- |
| CN(CCO)CC[C@H](CSc1ccccc1)Nc1ccc(S(=O)(=O)NC(=O)c2ccc(N3CCC([C@@H](O)c4ccccc4-c4ccc(Cl)cc4)CC3)cc2)cc1S(=O)(=O)C(F)(F)F [AZD4320] + CN(C)CCCOc1ccc(-c2ccc3ncc4c(c3c2)n(C2CCOCC2)c(=O)n4C)cn1 [AZD0156] (first compound max 1 µM, 7x7, partner max 1 µM) | -0.0683 | 0.366 | 0.209 | 0.154 | 0.346 | 0.191 | 0.13 | 0.193 | 0.154 | 0.632 | 0.158 | 0.188 | 0.136 | 0.0831 | 0.512 | 0.12 | 0.0949 | 0.983 | 0.263 | 0.109 |
| CN(CCO)CC[C@H](CSc1ccccc1)Nc1ccc(S(=O)(=O)NC(=O)c2ccc(N3CCC([C@@H](O)c4ccccc4-c4ccc(Cl)cc4)CC3)cc2)cc1S(=O)(=O)C(F)(F)F [AZD4320] + C[C@@H]1COCCN1C2=NC(=NC(=C2)C3(CC3)[S@](=N)(=O)C)C4=C5C=CNC5=NC=C4 [AZD6738] (first compound max 1 µM, 7x7, partner max 10 µM) | -0.021 | 0.774 | 0.675 | 0.536 | 0.765 | 0.77 | 0.566 | 0.861 | 0.633 | 0.781 | 0.561 | 0.675 | 0.49 | 0.674 | 1 | 0.592 | 0.78 | 1 | 0.51 | 0.328 |
| CN(CCO)CC[C@H](CSc1ccccc1)Nc1ccc(S(=O)(=O)NC(=O)c2ccc(N3CCC([C@@H](O)c4ccccc4-c4ccc(Cl)cc4)CC3)cc2)cc1S(=O)(=O)C(F)(F)F [AZD4320] + C[C@@H](Nc1cc(F)cc(F)c1)c1cc(C(=O)N(C)C)cc2c(=O)cc(N3CCOCC3)oc12 [AZD8186] (first compound max 1 µM, 7x7, partner max 3 µM) | 0.0117 | 0.306 | 0.365 | 0.35 | 0.344 | 0.273 | 0.397 | 0.336 | 0.237 | 0.887 | 0.305 | 0.415 | 0.149 | 0.308 | 0.99 | 0.362 | 0.357 | 1 | 0.226 | 0.552 |
| CN(CCO)CC[C@H](CSc1ccccc1)Nc1ccc(S(=O)(=O)NC(=O)c2ccc(N3CCC([C@@H](O)c4ccccc4-c4ccc(Cl)cc4)CC3)cc2)cc1S(=O)(=O)C(F)(F)F [AZD4320] + Cc1cc2ncnn2cc1Nc1ncc2c(n1)n(C1CCOCC1)c(=O)n2C [AZD7648] (first compound max 1 µM, 7x7, partner max 10 µM) | -0.0645 | 0.386 | 0.305 | 0.114 | 0.474 | 0.261 | 0.0798 | 0.149 | 0.245 | 0.61 | 0.106 | 0.321 | 0.154 | 0.0745 | 0.797 | 0.321 | 0.0273 | 0.976 | 0.226 | 0.117 |
| CN(CCO)CC[C@H](CSc1ccccc1)Nc1ccc(S(=O)(=O)NC(=O)c2ccc(N3CCC([C@@H](O)c4ccccc4-c4ccc(Cl)cc4)CC3)cc2)cc1S(=O)(=O)C(F)(F)F [AZD4320] + Cn1cnc2c(F)c(Nc3ccc(Br)cc3Cl)c(C(=O)NOCCO)cc21 [Selumetinib] (first compound max 1 µM, 7x7, partner max 3 µM) | 0.0132 | 0.3 | 0.538 | 0.377 | 0.413 | 0.38 | 0.238 | 0.476 | 0.241 | 0.904 | 0.325 | 0.624 | 0.216 | 0.264 | 0.962 | 0.358 | 0.389 | 0.997 | 0.321 | 0.22 |
| COc1nnc2ccc(N3CCC(c4ccc(OCCN5CCN(C)C(=O)[C@H]5C)cc4)CC3)nn12 [AZD5153] + C=CCn1c(=O)c2cnc(Nc3ccc(N4CCN(C)CC4)cc3)nc2n1-c1cccc(C(C)(C)O)n1 [AZD1775] (first compound max 1 µM, partner max 1 µM) | -0.0146 | 0.668 | 0.707 | 0.792 | 0.681 | 0.818 | 0.489 | 0.723 | 0.755 | 0.774 | 0.615 | 0.6 | 0.605 | 0.731 | 1 | 0.629 | 0.656 | 0.899 | 0.748 | 0.535 |
| COc1nnc2ccc(N3CCC(c4ccc(OCCN5CCN(C)C(=O)[C@H]5C)cc4)CC3)nn12 [AZD5153] + CC1(C)CCC(CN2CCN(c3ccc(C(=O)NS(=O)(=O)c4ccc(NCC5CCOCC5)c([N+](=O)[O-])c4)c(Oc4cnc5[nH]ccc5c4)c3)CC2)=C(c2ccc(Cl)cc2)C1 [Venetoclax] (first compound max 1 µM, 7x7, partner max 1 µM) | -0.0663 | 0.756 | 0.633 | 0.24 | 0.268 | 0.447 | 0.258 | 0.581 | 0.256 | 0.533 | 0.55 | 0.484 | 0.513 | 0.264 | 0.978 | 0.607 | 0.547 | 0.663 | 0.692 | 0.432 |
| COc1nnc2ccc(N3CCC(c4ccc(OCCN5CCN(C)C(=O)[C@H]5C)cc4)CC3)nn12 [AZD5153] + CCN(CCO)CCCOc1ccc2c(Nc3cc(CC(=O)Nc4cccc(F)c4)[nH]n3)ncnc2c1 [AZD2811] (first compound max 1 µM, 7x7, partner max 1 µM) | -0.0664 | 0.751 | 0.668 | 0.912 | 0.409 | 0.628 | 0.367 | 0.639 | 0.302 | 0.605 | 0.582 | 0.538 | 0.542 | 0.375 | 0.999 | 0.637 | 0.439 | 0.907 | 0.74 | 0.489 |
| COc1nnc2ccc(N3CCC(c4ccc(OCCN5CCN(C)C(=O)[C@H]5C)cc4)CC3)nn12 [AZD5153] + C[C@@H]1COCCN1C2=NC(=NC(=C2)C3(CC3)[S@](=N)(=O)C)C4=C5C=CNC5=NC=C4 [AZD6738] (first compound max 1 µM, 7x7, partner max 10 µM) | 0.0268 | 0.74 | 0.757 | 0.696 | 0.726 | 0.786 | 0.58 | 0.823 | 0.535 | 0.748 | 0.587 | 0.663 | 0.722 | 0.698 | 1 | 0.733 | 0.57 | 0.972 | 0.8 | 0.699 |
| COc1nnc2ccc(N3CCC(c4ccc(OCCN5CCN(C)C(=O)[C@H]5C)cc4)CC3)nn12 [AZD5153] + Cc1c2c(nn1C)CSCc1cc(n(C)n1)CSc1cc(c3ccccc3c1)OCCCc1c(C(=O)O)n(C)c3c-2c(Cl)ccc13 [AZD5991] (first compound max 1 µM, 7x7, partner max 1 µM) | -0.0477 | 0.864 | 0.691 | 1 | 0.337 | 1 | 0.323 | 0.708 | 0.319 | 0.808 | 0.958 | 0.53 | 0.527 | 0.891 | 1 | 1 | 0.942 | 0.982 | 0.719 | 0.528 |
| COc1nnc2ccc(N3CCC(c4ccc(OCCN5CCN(C)C(=O)[C@H]5C)cc4)CC3)nn12 [AZD5153] + Cn1cnc2c(F)c(Nc3ccc(Br)cc3Cl)c(C(=O)NOCCO)cc21 [Selumetinib] (first compound max 1 µM, 7x7, partner max 10 µM) | 0.0649 | 0.618 | 0.68 | 0.383 | 0.527 | 0.556 | 0.308 | 0.901 | 0.479 | 0.77 | 0.633 | 0.651 | 0.565 | 0.305 | 1 | 0.614 | 0.58 | 0.682 | 0.78 | 0.39 |
| Cc1c2c(nn1C)CSCc1cc(n(C)n1)CSc1cc(c3ccccc3c1)OCCCc1c(C(=O)O)n(C)c3c-2c(Cl)ccc13 [AZD5991] + C1CN(CCC1(C(=O)N[C@@H](CCO)C2=CC=C(C=C2)Cl)N)C3=NC=NC4=C3C=CN4 [Capivasertib] (first compound max 1 µM, 7x7, partner max 3 µM) | -0.0384 | 0.44 | 0.419 | 1 | 0.401 | 1 | 0.336 | 0.0827 | 0.132 | 0.535 | 0.922 | 0.377 | 0.179 | 0.755 | 1 | 0.911 | 0.505 | 0.579 | 0.339 | 0.21 |

Source: the supplement of paper PMC11061612
